Test results from patent US12534469B2 (CHILDREN'S HOSPITAL MEDICAL CENTER, priority 2020, dated 2026).

How the values were obtained:
Format in all cases: biochemical
[1] = molecular target: T1, IRAK1 (Homo sapiens, UniProt P51617); assay: RBC HotSpot Kinase Assay, IRAK1
T1 construct: purchased Reaction Biology (RBC HotSpot Kinase Assay)
Source text: (§1) This assay uses the isolated kinase enzyme. This assay is very useful for determining competition of the inhibitor for ATP and/or substrates and for measuring the kinetics of enzyme inhibition. […] Unlike kinase binding assays that measure competition for ATP, the HotSpot Kinase Assay is a functional assay that measures catalytic activity; as such it measures relative functional potency regardless of the mechanism of enzyme inhibition. This assay uses the form of the various enzymes that are easiest to express, which may not necessarily be the form of the enzyme that exist in the cell. (Sometimes the carboxy terminus has been truncated to aid in expression, or, if it is a receptor kinase, the enzyme itself is isolated from the other parts of the receptor that are involved in regulating kinase activity.)
(§2) The reagent used was as follows: Base Reaction buffer; 20 mM Hepes (pH 7.5), 10 mM MgCl2, 1 mM EGTA, 0.01% Brij35, 0.02 mg/ml BSA, 0.1 mM Na3VO4, 2 mM DTT, 1% DMSO. Required cofactors were added individually to each kinase reaction.
(§3) The reaction procedure was as follows: • 1) Substrates were prepared in freshly prepared Reaction Buffer. • 2) Any required cofactors were delivered to the substrate solution above. • 3) Kinase was delivered into the substrate solution and gently mixed. • 4) Compounds were delivered in 100% DMSO into the kinase reaction mixture by Acoustic technology (Echo550; nanoliter range), followed by incubation for 20 min at room temp. • 5) ^33P-ATP was delivered into the reaction mixture to initiate the reaction. • 6) The mixture was incubated for 2 hours at room temperature. • 7) Kinase activity was detected by P81 filter-binding method.

[2] = molecular target: T2, FLT3 (Homo sapiens, UniProt P36888); assay: RBC HotSpot Kinase Assay, FLT3
T2 construct: purchased Reaction Biology (RBC HotSpot Kinase Assay)
T2 sequence (P36888 564-958 limits assumed): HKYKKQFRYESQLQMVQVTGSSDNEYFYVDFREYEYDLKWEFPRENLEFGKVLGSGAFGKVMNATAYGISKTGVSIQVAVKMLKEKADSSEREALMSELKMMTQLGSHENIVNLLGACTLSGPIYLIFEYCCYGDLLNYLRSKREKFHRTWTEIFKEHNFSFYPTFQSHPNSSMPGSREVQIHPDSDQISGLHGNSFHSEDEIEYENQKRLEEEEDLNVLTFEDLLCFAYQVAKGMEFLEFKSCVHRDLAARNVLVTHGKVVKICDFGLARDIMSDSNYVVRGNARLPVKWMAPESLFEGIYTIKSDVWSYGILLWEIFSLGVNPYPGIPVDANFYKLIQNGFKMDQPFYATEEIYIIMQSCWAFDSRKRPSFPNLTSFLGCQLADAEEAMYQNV
Source text: as §1, §2, §3

[3] = molecular target: T3, IRAK4 (Homo sapiens, UniProt Q9NWZ3); assay: RBC HotSpot Kinase Assay, IRAK4; design: purchased Reaction Biology (RBC HotSpot Kinase Assay)
T3 sequence (Q9NWZ3 1-460): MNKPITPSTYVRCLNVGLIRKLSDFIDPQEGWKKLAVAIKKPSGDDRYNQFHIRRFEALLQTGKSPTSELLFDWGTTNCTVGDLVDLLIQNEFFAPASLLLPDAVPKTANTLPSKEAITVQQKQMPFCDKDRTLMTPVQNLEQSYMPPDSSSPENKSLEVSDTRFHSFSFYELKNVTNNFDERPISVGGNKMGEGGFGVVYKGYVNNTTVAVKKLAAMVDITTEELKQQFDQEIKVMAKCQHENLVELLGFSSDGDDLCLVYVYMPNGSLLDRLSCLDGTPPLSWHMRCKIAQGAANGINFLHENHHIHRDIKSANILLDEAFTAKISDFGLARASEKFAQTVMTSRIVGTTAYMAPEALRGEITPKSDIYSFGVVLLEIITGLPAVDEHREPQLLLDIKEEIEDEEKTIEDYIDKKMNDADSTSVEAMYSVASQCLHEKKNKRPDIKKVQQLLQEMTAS
Source text: as §1, §2, §3

T1 sequence (P51617 whole entry): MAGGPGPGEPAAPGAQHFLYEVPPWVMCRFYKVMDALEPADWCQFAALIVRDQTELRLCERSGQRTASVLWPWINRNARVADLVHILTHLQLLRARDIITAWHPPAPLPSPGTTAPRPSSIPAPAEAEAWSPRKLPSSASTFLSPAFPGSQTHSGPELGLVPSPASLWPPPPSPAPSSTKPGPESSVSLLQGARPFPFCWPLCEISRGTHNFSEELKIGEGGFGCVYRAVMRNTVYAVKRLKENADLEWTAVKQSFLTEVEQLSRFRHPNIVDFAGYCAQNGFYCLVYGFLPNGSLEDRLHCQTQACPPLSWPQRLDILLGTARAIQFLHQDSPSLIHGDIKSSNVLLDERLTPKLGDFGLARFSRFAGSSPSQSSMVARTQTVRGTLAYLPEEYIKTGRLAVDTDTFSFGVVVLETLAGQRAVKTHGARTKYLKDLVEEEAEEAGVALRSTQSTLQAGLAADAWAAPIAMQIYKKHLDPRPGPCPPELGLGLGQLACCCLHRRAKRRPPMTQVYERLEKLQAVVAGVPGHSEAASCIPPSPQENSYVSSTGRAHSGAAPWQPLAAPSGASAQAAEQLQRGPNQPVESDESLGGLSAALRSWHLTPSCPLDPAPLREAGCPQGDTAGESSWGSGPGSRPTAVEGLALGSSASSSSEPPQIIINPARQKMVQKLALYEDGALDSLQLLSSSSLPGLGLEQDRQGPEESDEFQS

Row | IC50 [1] [nM] | IC50 [2] [nM] | IC50 [3] [nM] | Structure (SMILES)
1 | 13000 | 4 | 2460 | c1cc(NC2CCNC2)nc(-c2cnc3ccc(-c4cnn(C5CCOCC5)c4)nn23)c1 (stereo not drawn) [Compound 29, N-(pyrrolidin-3-yl)-6-(6-(1-(tetrahydro-2H-pyran-4-yl)-1H-pyrazol-4-yl)imidazo[1,2-b]pyridazin-3-yl)pyridin-2-amine]
2 | 565 | 2 | 104 | Cn1cc(-c2ccc3ncc(-c4cccc(NC5CCNC5)n4)n3n2)cn1 (stereo not drawn) [Compound 30, 6-(6-(1-methyl-1H-pyrazol-4-yl)imidazo[1,2-b]pyridazin-3-yl)-N-(pyrrolidin-3-yl)pyridin-2-amine]
3 | 49 | 0.5 | 6 | c1cc(NC2CC3(CNC3)C2)nc(-c2cnc3ccc(-c4cn[nH]c4)nn23)c1 [Compound 31, N-(6-(6-(1H-pyrazol-4-yl)imidazo[1,2-b]pyridazin-3-yl)pyridin-2-yl)-2-azaspiro[3.3]heptan-6-amine]
4 | 3410 | 9 | 630 | CC(C)n1cc(-c2ccc3ncc(-c4cccc(NC5CC6(CNC6)C5)n4)n3n2)cn1 [Compound 32, N-(6-(6-(1-isopropyl-1H-pyrazol-4-yl)imidazo[1,2-b]pyridazin-3-yl)pyridin-2-yl)-2-azaspiro[3.3]heptan-6-amine]
5 | > 10000 | 16 | 3360 | c1ccc(-n2cc(-c3ccc4ncc(-c5cccc(NC6CC7(CNC7)C6)n5)n4n3)cn2)cc1 [Compound 33, N-(6-(6-(1-phenyl-1H-pyrazol-4-yl)imidazo[1,2-b]pyridazin-3-yl)pyridin-2-yl)-2-azaspiro[3.3]heptan-6-amine]
6 | > 10000 | 16 | 5070 | c1cc(NC2CC3(CNC3)C2)nc(-c2cnc3ccc(-c4cnn(C5CCOCC5)c4)nn23)c1 [Compound 34, N-(6-(6-(1-(tetrahydro-2H-pyran-4-yl)-1H-pyrazol-4-yl)imidazo[1,2-b]pyridazin-3-yl)pyridin-2-yl)-2-azaspiro[3.3]heptan-6-amine]
7 | 2820 | 3 | 126 | Cn1cc(-c2ccc3ncc(-c4cccc(NC5CC6(CNC6)C5)n4)n3n2)cn1 [Compound 35, N-(6-(6-(1-methyl-1H-pyrazol-4-yl)imidazo[1,2-b]pyridazin-3-yl)pyridin-2-yl)-2-azaspiro[3.3]heptan-6-amine]
8 | 3780 | 5 | 2700 | Cc1oncc1-c1ccc2ncc(-c3cccc(NC4CC5(CNC5)C4)n3)n2n1 [Compound 36, N-(6-(6-(5-methylisoxazol-4-yl)imidazo[1,2-b]pyridazin-3-yl)pyridin-2-yl)-2-azaspiro[3.3]heptan-6-amine]
9 | > 10000 | 7 | 4320 | c1cc(NC2CC3(CNC3)C2)nc(-c2cnc3ccc(-c4cnn(C5CNC5)c4)nn23)c1 [Compound 37, N-(6-(6-(1-(azetidin-3-yl)-1H-pyrazol-4-yl)imidazo[1,2-b]pyridazin-3-yl)pyridin-2-yl)-2-azaspiro[3.3]heptan-6-amine]
10 | 23 | < 0.5 | 2 | c1cc(NC2CC3(CCNC3)C2)nc(-c2cnc3ccc(-c4cn[nH]c4)nn23)c1 (stereo not drawn) [Compound 38, N-(6-(6-(1H-pyrazol-4-yl)imidazo[1,2-b]pyridazin-3-yl)pyridin-2-yl)-6-azaspiro[3.4]octan-2-amine]
11 | 2330 | 8 | 321 | CC(C)n1cc(-c2ccc3ncc(-c4cccc(NC5CC6(CCNC6)C5)n4)n3n2)cn1 (stereo not drawn) [Compound 39, N-(6-(6-(1-isopropyl-1H-pyrazol-4-yl)imidazo[1,2-b]pyridazin-3-yl)pyridin-2-yl)-6-azaspiro[3.4]octan-2-amine]
12 | > 10000 | 9 | 1300 | c1ccc(-n2cc(-c3ccc4ncc(-c5cccc(NC6CC7(CCNC7)C6)n5)n4n3)cn2)cc1 (stereo not drawn) [Compound 40, N-(6-(6-(1-phenyl-1H-pyrazol-4-yl)imidazo[1,2-b]pyridazin-3-yl)pyridin-2-yl)-6-azaspiro[3.4]octan-2-amine]
13 | > 10000 | 18 | 3480 | c1cc(NC2CC3(CCNC3)C2)nc(-c2cnc3ccc(-c4cnn(C5CCOCC5)c4)nn23)c1 (stereo not drawn) [Compound 41, N-(6-(6-(1-(tetrahydro-2H-pyran-4-yl)-1H-pyrazol-4-yl)imidazo[1,2-b]pyridazin-3-yl)pyridin-2-yl)-6-azaspiro[3.4]octan-2-amine]
14 | 2220 | 3 | 113 | Cn1cc(-c2ccc3ncc(-c4cccc(NC5CC6(CCNC6)C5)n4)n3n2)cn1 (stereo not drawn) [Compound 42, N-(6-(6-(1-methyl-1H-pyrazol-4-yl)imidazo[1,2-b]pyridazin-3-yl)pyridin-2-yl)-6-azaspiro[3.4]octan-2-amine]
15 | > 10000 | 4 | 4340 | c1cc(NC2CC3(CCNC3)C2)nc(-c2cnc3ccc(-c4cnn(C5CNC5)c4)nn23)c1 (stereo not drawn) [Compound 44, N-(6-(6-(1-(azetidin-3-yl)-1H-pyrazol-4-yl)imidazo[1,2-b]pyridazin-3-yl)pyridin-2-yl)-6-azaspiro[3.4]octan-2-amine]
16 | 37 | < 0.5 | 8 | c1cc(NC2CCC3(CNC3)C2)nc(-c2cnc3ccc(-c4cn[nH]c4)nn23)c1 (stereo not drawn) [Compound 45, N-(6-(6-(1H-pyrazol-4-yl)imidazo[1,2-b]pyridazin-3-yl)pyridin-2-yl)-2-azaspiro[3.4]octan-6-amine]
17 | 2180 | 6 | 985 | CC(C)n1cc(-c2ccc3ncc(-c4cccc(NC5CCC6(CNC6)C5)n4)n3n2)cn1 (stereo not drawn) [Compound 46, N-(6-(6-(1-isopropyl-1H-pyrazol-4-yl)imidazo[1,2-b]pyridazin-3-yl)pyridin-2-yl)-2-azaspiro[3.4]octan-6-amine]
18 | > 10000 | 19 | 3200 | c1ccc(-n2cc(-c3ccc4ncc(-c5cccc(NC6CCC7(CNC7)C6)n5)n4n3)cn2)cc1 (stereo not drawn) [Compound 47, N-(6-(6-(1-phenyl-1H-pyrazol-4-yl)imidazo[1,2-b]pyridazin-3-yl)pyridin-2-yl)-2-azaspiro[3.4]octan-6-amine]
19 | > 10000 | 12 | 4080 | c1cc(NC2CCC3(CNC3)C2)nc(-c2cnc3ccc(-c4cnn(C5CCOCC5)c4)nn23)c1 (stereo not drawn) [Compound 48, N-(6-(6-(1-(tetrahydro-2H-pyran-4-yl)-1H-pyrazol-4-yl)imidazo[1,2-b]pyridazin-3-yl)pyridin-2-yl)-2-azaspiro[3.4]octan-6-amine]
20 | 1200 | 2 | 204 | Cn1cc(-c2ccc3ncc(-c4cccc(NC5CCC6(CNC6)C5)n4)n3n2)cn1 (stereo not drawn) [Compound 49, N-(6-(6-(1-methyl-1H-pyrazol-4-yl)imidazo[1,2-b]pyridazin-3-yl)pyridin-2-yl)-2-azaspiro[3.4]octan-6-amine]
21 | 1060 | 8 | 2670 | Cc1oncc1-c1ccc2ncc(-c3cccc(NC4CCC5(CNC5)C4)n3)n2n1 (stereo not drawn) [Compound 50, N-(6-(6-(5-methylisoxazol-4-yl)imidazo[1,2-b]pyridazin-3-yl)pyridin-2-yl)-2-azaspiro[3.4]octan-6-amine]
22 | 1690 | < 0.5 | 8 | FC1(F)CNCC1Nc1cccc(-c2cnc3ccc(-c4cnn5ncccc45)nn23)n1 (stereo not drawn) [Compound 54, N-(4,4-difluoropyrrolidin-3-yl)-6-(6-(pyrazolo[1,5-b]pyridazin-3-yl)imidazo[1,2-b]pyridazin-3-yl)pyridin-2-amine]
